Literature values, collected in patent US12279614B2, “Photo-polymerizable, universal antimicrobial coating to produce high-performing, multi-functional face masks” (The Governors of the University of Alberta, priority 2022, dated 2025).

Tested on: Human Adenovirus Type 8
Details: incubation time 1 hr

## Benzalkonium chloride
  Inactivation efficiency: 1.01 log reduction
